From patent US4775685A, “2,4-diphenyl-1,3-dioxanes” (Imperial Chemical Industries PLC, priority 1985, dated 1988) come the findings set out here.

Each structure is given as a SMILES string.

The target in assay [1] is T1, TXA2 (Oryctolagus cuniculus, UniProt Q6WQI8).
T1 construct: agonist TXA2 (from rabbit platelet-rich plasma) or U46619
T1 sequence (Q6WQI8 1-233): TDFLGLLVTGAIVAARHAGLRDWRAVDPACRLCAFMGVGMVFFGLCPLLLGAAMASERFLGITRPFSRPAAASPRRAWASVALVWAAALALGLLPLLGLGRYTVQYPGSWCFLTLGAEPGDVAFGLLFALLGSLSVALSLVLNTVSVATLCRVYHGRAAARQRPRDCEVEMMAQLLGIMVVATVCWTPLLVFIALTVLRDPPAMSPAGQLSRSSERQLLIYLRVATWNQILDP
Briefly: Test (a): rabbit aortal strip model, TXA2 antagonism. The conditions noted are these: (+0.05) for (i)-(iii). The protocol: As stated earlier, the compounds of formula I are antagonists of one or more of the actions of TXA2, for example certain of its actions on blood platelets, the vasculature and/or the lung.
(a) The rabbit aortal strip model devised by Piper and Vane (Nature, 1969, 223, 29-35) using as agonist a freshly prepared sample of TXA2, generated by addition of arachidonic acid (25 μg) to citrated, platelet rich rabbit plasma (250 μl ) and allowing the mixture to aggregate fully over 90 seconds before use; alternatively the TXA2 mimetic agent known as U46619 (described by R. L. Jones et alia in "Chemistry, Biochemistry and Pharmacological Activity of Prostanoids" edited by S. M. Roberts and F. Scheinmann, at page 211; Pergamon Press, 1979) may be used as the agonist; and […]

Assay [2] deals with T2, U46619 stimulated platelet aggregation (Homo sapiens, UniProt P21731).
T2 construct: aggregating human, citrated, platelet-rich plasma by addition of the TXA2 mimetic agent U46619; endogenous in cells; host or cells: human platelets in citrated platelet-rich plasma
T2 sequence (P21731 1-343): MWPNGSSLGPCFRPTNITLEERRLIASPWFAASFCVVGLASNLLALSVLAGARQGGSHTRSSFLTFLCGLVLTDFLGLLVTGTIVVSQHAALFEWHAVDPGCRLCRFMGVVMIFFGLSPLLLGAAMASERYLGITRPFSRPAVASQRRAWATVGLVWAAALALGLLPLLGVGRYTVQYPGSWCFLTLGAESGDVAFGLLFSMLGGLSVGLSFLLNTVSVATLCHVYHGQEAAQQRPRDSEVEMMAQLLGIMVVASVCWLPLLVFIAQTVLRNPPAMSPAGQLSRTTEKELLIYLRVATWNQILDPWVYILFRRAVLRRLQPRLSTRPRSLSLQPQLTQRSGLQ
Briefly: Test (b): blood platelet aggregation test (U46619, human citrated platelet-rich plasma). The assay is classed as cell-based. An excerpt:
(b) a blood platelet aggregation test based on that described by Born (Nature, 1962, 194, 927-929) and involving:
(i) aggregating human, citrated, platelet-rich plasma by addition of the TXA2 mimetic agent U46619 so that a dose-response curve is generated;
(iii) calculating a KB value indicating potency of TXA2 antagonism for the test compound, averaged over several concentrations, from the calculated 50% response value for U46619 aggregation in the presence and absence of test compound; and […]

`O=C(O)CCC/C=C\C[C@@H]1CO[C@H](c2ccccc2Cl)O[C@@H]1c1ccccc1` (relative stereo) [(iv), 5(Z)-7-([2,4,5-cis]-2-o-chlorophenyl-4-phenyl-1,3-dioxan-5-yl)heptenoic acid, reference compound] returned a pA2 in assay [1] of 6.22.

`N#Cc1ccc([C@H]2OC[C@@H](C/C=C\CCCC(=O)O)[C@@H](c3ccccc3)O2)cc1` (relative stereo) [(v), 5(Z)-7([2,4,5-cis]-2-p-cyanophenyl-4-phenyl-1,3-dioxan-5-yl)heptenoic acid, reference compound]: the pA2 in assay [1] was determined as 5.65.

The molecule `O=C(O)CC/C=C\C[C@@H]1CO[C@H](c2ccccc2Cl)O[C@@H]1c1ccccc1O` (relative stereo) [compound (i), 4(Z)-6-([2,4,5-cis]-2-o-chlorophenyl-4-o-hydroxyphenyl-1,3-dioxan-5-yl)hexenoic acid] yielded a pA2 in assay [1] of 8.02.

Take `N#Cc1ccccc1[C@H]1OC[C@@H](C/C=C\CCC(=O)O)[C@@H](c2ccccc2O)O1` (relative stereo) [compound (ii), 4(Z)-6-([2,4,5-cis]-2-o-cyanophenyl-4-o-hydroxyphenyl-1,3-dioxan-5-yl)hexenoic acid]: the pA2 in assay [1] is recorded as 8.09. The Kb in assay [2] came to 0.834 nM.

On to `N#Cc1ccc([C@H]2OC[C@@H](C/C=C\CCC(=O)O)[C@@H](c3ccccc3O)O2)cc1` (relative stereo) [compound (iii)], for which the pA2 in assay [1] was 7.45. Moreover, in assay [2], the Kb worked out at 5.49 nM.

Broadly, the pA2 is a measure of antagonist potency on a negative log scale. A low value points to lower antagonist potency.
